Test results as given in ChEMBL document CHEMBL1201862, “PubChem BioAssay data set” (2004).
Active and inactive are the calls of the source.

Experiments:
[1] = test system: HeLa; assay: HeLa cell cytotoxicity, dose response, cytotoxicity control for MITF activator project, CellTiter-Glo luminescence, cherry-pick samples (AID 540259); assay type: functional, cell-based; conditions: Homo sapiens
[2] = target: T1, Cytochrome P450 1A2 (Homo sapiens, UniProt P05177);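 also: PubChem cytochrome P450 panel assay, CYP1A2 panel member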
T1 sequence (P05177 whole entry): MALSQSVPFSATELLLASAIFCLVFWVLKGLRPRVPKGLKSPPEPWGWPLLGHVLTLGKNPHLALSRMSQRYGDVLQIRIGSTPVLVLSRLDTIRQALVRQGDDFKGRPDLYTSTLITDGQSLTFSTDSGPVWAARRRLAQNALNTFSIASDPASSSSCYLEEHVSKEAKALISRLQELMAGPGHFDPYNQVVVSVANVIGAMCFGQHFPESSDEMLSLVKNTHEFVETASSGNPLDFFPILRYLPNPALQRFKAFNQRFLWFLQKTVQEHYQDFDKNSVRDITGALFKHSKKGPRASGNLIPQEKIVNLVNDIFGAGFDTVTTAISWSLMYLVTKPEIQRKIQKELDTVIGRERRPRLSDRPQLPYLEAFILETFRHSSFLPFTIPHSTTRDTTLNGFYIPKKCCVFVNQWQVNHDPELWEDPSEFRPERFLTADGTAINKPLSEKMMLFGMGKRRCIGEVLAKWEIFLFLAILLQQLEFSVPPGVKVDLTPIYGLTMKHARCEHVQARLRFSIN

[3] = test system: Escherichia coli; assay: microbe, parasite or virus in culture
[4] = HEp-2 cell cytotoxicity, dose response, cytotoxicity control for RSV inhibitor project, HTS (AID 2410); assay type: functional; conditions: human respiratory syncytial virus
[5] = inhibitors of firefly luciferase expression or activity, dose response, H4 neuroglioma cells, luminescence (AID 1990); assay type: functional, cell-based
[6] = Luminescence Cell-Based Dose Response HTS to Identify Inhibitors of 5'UTR Stem-Loop Driven Prion Protein mRNA Translation in H4 Neuroglioblastoma Cells. [Related pubchem assays: 1827 (Project Summary), 1813 (Primary HTS)]; assay type: functional
[7] = inhibitors of SNCA 5'UTR-driven reporter translation, confirmation, H4 neuroglioma cells, luminescence (AID 1988); assay type: functional, cell-based
[8] = inhibitors of intracellular T. cruzi replication, confirmation, NIH3T3 host cells, beta-gal luminescence (AID 2044); assay type: functional, cell-based;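 also: intracellular parasites grown in NIH/3T3 mouse fibroblasts as host cells; luminescent beta-galactosidase reporter signal from transgenic T. cruzi replicating inside host cells; inhibitors lower the luminescence signal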
[9] = cytotoxicity toward NIH3T3 fibroblasts, dose response, counter-screen, cell-based, ATP luminescence, mouse fibroblasts (AID 2010); assay type: functional;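 also: cells exposed to compound for about 90 hours before reading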
[10] = target: T2, Cysteine protease ATG4B (Homo sapiens, UniProt Q9Y4P1); assay type: functional;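 also: Fluorescence-based dose-response confirmation assay measuring inhibition of ATG4B activity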
T2 sequence (Q9Y4P1 whole entry): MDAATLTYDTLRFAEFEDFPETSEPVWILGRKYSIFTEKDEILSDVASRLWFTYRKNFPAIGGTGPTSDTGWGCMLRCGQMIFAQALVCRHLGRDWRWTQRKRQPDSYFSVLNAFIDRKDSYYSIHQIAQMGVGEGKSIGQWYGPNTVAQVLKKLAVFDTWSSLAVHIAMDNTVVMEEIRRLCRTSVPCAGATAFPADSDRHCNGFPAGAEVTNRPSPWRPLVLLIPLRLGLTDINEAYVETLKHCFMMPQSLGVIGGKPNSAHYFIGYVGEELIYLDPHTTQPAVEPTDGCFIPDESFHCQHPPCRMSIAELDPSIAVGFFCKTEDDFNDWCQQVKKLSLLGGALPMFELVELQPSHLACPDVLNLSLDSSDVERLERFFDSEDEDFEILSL

[11] = target: Phospholipase A2 (Homo sapiens, UniProt P04054); assay type: functional;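 also: confirmatory dose-response counterscreen on phospholipase A2, testing hits that came from an ultra-high-throughput screen for ATG4B inhibitors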
Sequence of Phospholipase A2 (P04054 whole entry): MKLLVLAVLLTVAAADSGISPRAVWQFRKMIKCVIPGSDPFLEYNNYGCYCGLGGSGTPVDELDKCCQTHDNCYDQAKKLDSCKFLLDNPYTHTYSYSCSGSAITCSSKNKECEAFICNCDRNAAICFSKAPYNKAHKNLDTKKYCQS

[12] = test system: Vero; assay: cells; assay type: functional, cell-based; conditions: Chlorocebus sabaeus
[13] = cells
[14] = target: Melanocortin receptor 4 (Homo sapiens, UniProt P32245); assay type: functional, cell-based;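 also: Cell-based assay with luminescence read-out, confirmatory dose-response testing for agonist activity of biased ligands at MC4R; human U2OS cells with tagged receptor and beta-arrestin; potency of agonists that increase receptor coupling to beta-arrestin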
[15] = target: Protein Wnt-3a (Mus musculus, UniProt P27467); assay: Wnt3a-driven reporter signaling inhibition, dose response, selectivity assay for Gli-SUFU antagonist project, Wnt-LIGHT cells, luminescence (AID 651570); assay type: functional; conditions: read-out: IC50_Mean;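 also: Wnt-LIGHT reporter cells stimulated with conditioned medium from Wnt3a-producing cells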
Sequence of Protein Wnt-3a (P27467 whole entry): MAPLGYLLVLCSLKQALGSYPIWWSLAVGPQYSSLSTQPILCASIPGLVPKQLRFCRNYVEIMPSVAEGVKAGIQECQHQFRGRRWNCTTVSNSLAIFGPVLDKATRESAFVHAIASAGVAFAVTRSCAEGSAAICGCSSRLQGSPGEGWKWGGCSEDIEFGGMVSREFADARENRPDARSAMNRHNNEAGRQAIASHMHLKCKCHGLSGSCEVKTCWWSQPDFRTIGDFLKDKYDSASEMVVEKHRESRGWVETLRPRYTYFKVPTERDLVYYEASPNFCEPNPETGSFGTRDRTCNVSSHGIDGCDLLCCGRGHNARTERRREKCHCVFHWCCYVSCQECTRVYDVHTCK

[16] = target: T3, Cytochrome P450 3A4 (Homo sapiens, UniProt P08684); conditions: Potency
T3 sequence (P08684 whole entry): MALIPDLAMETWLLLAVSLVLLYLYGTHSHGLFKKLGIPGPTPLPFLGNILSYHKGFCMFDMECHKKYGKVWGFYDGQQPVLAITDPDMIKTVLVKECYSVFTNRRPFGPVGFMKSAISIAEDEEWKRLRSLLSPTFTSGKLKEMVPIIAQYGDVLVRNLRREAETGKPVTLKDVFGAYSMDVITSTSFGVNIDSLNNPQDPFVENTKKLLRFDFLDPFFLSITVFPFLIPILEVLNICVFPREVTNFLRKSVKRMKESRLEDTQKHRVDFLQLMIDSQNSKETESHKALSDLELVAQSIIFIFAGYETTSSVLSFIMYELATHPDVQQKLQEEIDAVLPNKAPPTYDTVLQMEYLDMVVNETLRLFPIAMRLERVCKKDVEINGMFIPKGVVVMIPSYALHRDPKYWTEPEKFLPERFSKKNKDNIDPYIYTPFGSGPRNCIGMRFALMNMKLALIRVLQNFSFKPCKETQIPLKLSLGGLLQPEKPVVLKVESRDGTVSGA

[17] = target: Voltage-gated inwardly rectifying potassium channel KCNH2 (Homo sapiens, UniProt Q12809); conditions: Potency;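 also: confirmatory quantitative high-throughput screen measuring inhibition of hERG channel activity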
Sequence of Voltage-gated inwardly rectifying potassium channel KCNH2 (Q12809 whole entry): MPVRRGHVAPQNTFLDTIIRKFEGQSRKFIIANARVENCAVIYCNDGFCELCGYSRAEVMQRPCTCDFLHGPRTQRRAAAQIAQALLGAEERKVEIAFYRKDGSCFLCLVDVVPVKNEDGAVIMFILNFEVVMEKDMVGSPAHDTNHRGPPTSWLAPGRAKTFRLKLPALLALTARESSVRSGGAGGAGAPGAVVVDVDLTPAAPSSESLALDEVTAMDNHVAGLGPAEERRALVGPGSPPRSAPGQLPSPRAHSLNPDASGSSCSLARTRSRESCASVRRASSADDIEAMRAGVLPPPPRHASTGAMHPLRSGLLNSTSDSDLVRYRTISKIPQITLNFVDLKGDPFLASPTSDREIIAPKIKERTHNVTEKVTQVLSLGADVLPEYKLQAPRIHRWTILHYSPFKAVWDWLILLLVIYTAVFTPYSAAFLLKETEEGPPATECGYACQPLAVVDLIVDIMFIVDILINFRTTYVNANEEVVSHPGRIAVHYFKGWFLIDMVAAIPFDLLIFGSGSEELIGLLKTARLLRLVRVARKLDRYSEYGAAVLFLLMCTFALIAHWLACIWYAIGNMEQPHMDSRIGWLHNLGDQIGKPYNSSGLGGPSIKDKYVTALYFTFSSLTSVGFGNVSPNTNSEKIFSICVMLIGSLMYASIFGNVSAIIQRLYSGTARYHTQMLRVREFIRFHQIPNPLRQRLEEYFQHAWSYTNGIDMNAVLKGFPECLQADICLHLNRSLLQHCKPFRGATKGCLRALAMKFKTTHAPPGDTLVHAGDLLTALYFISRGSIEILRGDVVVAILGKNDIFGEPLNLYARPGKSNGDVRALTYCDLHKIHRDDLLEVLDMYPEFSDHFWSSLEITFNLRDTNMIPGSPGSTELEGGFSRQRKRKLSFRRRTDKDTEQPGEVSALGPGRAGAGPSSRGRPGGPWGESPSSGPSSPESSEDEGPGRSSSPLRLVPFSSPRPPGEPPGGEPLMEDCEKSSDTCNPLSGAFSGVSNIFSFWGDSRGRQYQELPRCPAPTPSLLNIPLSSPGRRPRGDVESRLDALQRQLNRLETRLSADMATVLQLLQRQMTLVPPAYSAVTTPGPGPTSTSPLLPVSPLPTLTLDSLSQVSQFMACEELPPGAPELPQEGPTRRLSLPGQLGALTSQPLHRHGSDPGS

[18] = target: T4, Corticotropin-releasing factor receptor 2/Corticotropin-releasing factor-binding protein (Homo sapiens, UniProt P24387+Q13324); assay: activators of CRF receptor 2 with binding protein – uHTS hits, confirmation (AID 602473); assay type: functional; conditions: read-out: EC50_Mean
T4 sequence (Q13324 whole entry): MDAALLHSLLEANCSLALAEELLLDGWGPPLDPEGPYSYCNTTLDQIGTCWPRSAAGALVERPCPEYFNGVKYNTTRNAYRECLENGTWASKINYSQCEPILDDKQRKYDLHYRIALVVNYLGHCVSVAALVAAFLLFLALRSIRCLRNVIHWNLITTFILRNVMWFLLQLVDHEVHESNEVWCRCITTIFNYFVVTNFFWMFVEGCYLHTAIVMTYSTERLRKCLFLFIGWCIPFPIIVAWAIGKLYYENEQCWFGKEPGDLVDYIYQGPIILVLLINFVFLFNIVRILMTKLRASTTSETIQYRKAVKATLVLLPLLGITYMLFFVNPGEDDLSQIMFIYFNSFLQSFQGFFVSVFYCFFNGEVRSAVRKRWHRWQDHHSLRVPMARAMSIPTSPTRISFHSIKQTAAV
T4 sequence (P24387 whole entry): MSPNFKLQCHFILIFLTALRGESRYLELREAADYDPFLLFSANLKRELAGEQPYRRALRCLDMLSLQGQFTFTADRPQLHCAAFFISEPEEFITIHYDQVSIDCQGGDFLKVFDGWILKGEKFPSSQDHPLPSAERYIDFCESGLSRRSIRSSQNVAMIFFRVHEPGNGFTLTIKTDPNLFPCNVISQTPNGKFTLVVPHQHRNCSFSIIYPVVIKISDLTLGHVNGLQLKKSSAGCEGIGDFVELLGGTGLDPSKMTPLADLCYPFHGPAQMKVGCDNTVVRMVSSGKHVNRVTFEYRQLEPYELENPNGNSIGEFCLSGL

[19] = HeLa cell cytotoxicity, dose response, cytotoxicity control for MgcRacGAP inhibitor project (AID 624300); assay type: functional
[20] = target: T5, Rac GTPase-activating protein 1 (Homo sapiens, UniProt Q9H0H5); assay: MgcRacGAP GTPase-activating activity inhibitors, confirmation, biochemical, ADP Hunter fluorescence, primary and confirmatory (AID 624330); assay type: functional
T5 sequence (Q9H0H5 whole entry): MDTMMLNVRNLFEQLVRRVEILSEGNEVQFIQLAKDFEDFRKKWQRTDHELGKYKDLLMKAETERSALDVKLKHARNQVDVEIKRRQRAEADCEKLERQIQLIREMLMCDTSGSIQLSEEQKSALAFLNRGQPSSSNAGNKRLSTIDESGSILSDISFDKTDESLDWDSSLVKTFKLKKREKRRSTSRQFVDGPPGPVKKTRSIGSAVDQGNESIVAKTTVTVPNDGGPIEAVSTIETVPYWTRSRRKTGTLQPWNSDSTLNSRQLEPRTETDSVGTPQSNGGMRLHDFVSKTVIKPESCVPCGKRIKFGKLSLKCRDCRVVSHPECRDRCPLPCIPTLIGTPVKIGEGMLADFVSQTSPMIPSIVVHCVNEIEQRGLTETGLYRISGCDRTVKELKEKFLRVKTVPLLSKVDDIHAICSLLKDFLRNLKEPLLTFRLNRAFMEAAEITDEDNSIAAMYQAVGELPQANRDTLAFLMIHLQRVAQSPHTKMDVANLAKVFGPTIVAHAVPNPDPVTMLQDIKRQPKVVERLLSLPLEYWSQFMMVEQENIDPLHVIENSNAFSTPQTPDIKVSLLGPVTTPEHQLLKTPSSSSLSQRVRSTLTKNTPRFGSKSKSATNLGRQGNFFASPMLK

[21] = target: 26S proteasome non-ATPase regulatory subunit 14 (Homo sapiens, UniProt O00487); assay: inhibition of proteasome subunit RPN11 – biochemical, fluorescence polarization, uHTS hits, confirmation (AID 602368); assay type: functional
Sequence of 26S proteasome non-ATPase regulatory subunit 14 (O00487 whole entry): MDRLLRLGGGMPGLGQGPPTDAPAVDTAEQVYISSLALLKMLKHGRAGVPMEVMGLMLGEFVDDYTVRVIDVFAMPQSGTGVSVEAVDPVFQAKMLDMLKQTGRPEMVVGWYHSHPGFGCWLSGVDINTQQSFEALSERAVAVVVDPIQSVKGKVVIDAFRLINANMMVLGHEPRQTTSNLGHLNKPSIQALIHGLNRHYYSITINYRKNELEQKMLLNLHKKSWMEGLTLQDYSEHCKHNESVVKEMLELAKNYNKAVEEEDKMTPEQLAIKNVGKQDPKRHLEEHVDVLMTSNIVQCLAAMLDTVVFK

[22] = target: 72 kDa type IV collagenase (Homo sapiens, UniProt P08253); assay: Dose Response validation of uHTS RPN11 inhibitor hits using a MMP-2 Fluorescence assay.; assay type: functional
Sequence of 72 kDa type IV collagenase (P08253 whole entry): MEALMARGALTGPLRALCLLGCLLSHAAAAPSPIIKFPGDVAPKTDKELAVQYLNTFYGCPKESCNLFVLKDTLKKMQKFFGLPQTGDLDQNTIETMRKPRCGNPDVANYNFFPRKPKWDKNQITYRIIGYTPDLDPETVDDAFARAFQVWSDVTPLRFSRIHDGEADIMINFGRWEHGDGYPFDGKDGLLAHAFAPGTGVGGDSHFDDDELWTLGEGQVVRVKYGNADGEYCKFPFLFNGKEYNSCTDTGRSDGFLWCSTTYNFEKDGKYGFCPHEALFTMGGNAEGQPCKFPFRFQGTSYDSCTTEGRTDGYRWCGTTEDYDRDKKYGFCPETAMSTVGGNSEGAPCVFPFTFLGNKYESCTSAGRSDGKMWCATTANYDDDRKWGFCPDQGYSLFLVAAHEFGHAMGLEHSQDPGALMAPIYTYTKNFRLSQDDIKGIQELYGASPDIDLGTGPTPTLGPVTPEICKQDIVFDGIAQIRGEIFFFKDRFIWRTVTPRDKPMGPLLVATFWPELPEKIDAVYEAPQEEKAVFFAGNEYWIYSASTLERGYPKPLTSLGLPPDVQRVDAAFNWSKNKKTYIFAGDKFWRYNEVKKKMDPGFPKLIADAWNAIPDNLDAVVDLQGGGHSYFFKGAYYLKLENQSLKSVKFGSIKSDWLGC

[23] = target: Prothrombin (Bos taurus, UniProt P00735); assay: thrombin inhibition, dose response, biochemical, fluorescence polarization, uHTS hits (AID 602369); assay type: functional
[24] = cells; assay type: functional, cell-based
[25] = cells; assay type: functional, cell-based; remark: listed apart in the source
[26] = target: Dual specificity tyrosine-phosphorylation-regulated kinase 1A (Rattus norvegicus, UniProt Q63470); assay type: biochemical, Homo sapiens
[27] = P. falciparum Dd2 growth inhibitors, dose response, SYBR Green, cherry-picked samples (AID 1159567); assay type: functional, cell-based
[28] = cytotoxicity in HEK-293T cells, dose response, cytotoxicity control for TCR NF-kB inhibitor project, luminescence, T-cell screen hits (AID 489026); assay type: functional, cell-based;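 also: cells exposed to compound about 14 hours before the viability readout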
[29] = target: Cytochrome P450 2D6 (Homo sapiens, UniProt P10635);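 also: CYP2D6 member of a cytochrome P450 panel assay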
Sequence of Cytochrome P450 2D6 (P10635 whole entry): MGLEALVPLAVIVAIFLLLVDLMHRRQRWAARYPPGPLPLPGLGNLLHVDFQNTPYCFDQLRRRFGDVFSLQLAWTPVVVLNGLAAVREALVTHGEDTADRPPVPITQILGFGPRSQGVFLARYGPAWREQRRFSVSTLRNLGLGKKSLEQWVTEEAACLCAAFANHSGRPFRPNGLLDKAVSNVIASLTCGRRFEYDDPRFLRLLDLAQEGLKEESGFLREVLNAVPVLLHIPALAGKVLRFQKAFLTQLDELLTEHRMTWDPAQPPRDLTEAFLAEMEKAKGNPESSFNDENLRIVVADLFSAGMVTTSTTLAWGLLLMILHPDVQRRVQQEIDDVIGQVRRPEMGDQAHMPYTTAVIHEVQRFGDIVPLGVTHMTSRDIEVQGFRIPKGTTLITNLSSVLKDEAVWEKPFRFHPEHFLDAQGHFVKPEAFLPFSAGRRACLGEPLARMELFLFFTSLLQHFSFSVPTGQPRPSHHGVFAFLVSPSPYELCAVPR

[30] = target: T3, Cytochrome P450 3A4
[31] = target: Cytochrome P450 2C9 (Homo sapiens, UniProt P11712)
Sequence of Cytochrome P450 2C9 (P11712 whole entry): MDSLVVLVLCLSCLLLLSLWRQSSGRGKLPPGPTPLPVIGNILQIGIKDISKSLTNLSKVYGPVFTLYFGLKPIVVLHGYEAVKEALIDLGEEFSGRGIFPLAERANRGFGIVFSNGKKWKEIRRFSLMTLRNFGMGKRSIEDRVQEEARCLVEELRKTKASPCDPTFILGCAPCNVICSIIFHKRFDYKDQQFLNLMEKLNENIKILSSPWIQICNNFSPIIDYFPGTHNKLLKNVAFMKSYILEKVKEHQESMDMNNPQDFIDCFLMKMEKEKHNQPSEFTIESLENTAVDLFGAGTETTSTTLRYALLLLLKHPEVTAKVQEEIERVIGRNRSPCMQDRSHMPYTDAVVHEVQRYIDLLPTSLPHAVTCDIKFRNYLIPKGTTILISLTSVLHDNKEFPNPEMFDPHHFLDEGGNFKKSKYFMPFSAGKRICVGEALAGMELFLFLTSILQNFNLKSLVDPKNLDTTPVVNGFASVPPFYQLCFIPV

[32] = target: Large T antigen (Simian virus 40, UniProt P03070); assay type: functional, Betapolyomavirus macacae;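 also: Confirmatory-stage PubChem screen for compounds that inhibit SV40 T antigen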
Sequence of Large T antigen (P03070 whole entry): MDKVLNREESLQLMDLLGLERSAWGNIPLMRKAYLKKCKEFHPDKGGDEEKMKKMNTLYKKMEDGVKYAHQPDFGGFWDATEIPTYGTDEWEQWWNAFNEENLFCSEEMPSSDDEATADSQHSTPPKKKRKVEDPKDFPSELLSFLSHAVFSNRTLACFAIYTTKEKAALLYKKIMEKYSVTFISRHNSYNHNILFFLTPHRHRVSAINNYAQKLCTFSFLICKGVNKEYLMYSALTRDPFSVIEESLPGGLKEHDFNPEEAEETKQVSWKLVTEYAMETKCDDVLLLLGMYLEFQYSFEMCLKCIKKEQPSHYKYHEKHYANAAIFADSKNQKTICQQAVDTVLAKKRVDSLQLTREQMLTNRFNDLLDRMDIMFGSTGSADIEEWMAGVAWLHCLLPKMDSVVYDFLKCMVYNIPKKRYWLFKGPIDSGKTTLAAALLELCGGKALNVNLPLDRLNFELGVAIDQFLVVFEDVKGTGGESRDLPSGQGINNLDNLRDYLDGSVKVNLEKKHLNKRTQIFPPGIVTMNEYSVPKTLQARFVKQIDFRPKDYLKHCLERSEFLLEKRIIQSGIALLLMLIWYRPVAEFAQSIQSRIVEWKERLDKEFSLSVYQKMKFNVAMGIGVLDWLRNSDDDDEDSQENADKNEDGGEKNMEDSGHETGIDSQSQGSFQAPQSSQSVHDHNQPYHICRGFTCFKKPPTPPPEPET

CCn1c(/C=C/c2c[nH]c3ccccc23)nc2ccccc2c1=O
AC50 [1]: 50.7 µM (active)

c1ccc(-c2ccc(-c3cnc4n3CCCCC4)cc2)cc1
AC50 [1]: 37.5 µM (active)

O=C(Nc1ccc2c(c1)CCC2)c1c(F)cccc1Cl
AC50 [1]: > 350 µM (inactive)

COc1ccccc1C(=O)Nc1ccc2c(C)cc(=O)oc2c1
AC50 [1]: 51.7 µM (active)

Cc1ccc(OCCNC(=O)c2cc(-n3cnnc3)ccc2Cl)cc1C
AC50 [2]: 28.2 µM (inconclusive)
AC50 [3]: 51 µM (active)

Fc1ccc(C2c3[nH]c4ccccc4c3CCN2Cc2cccn2-c2ncccn2)cc1 (configuration not stated)
CC50 [4]: 24 µM (active)
EC50 [5]: 14.6 µM (active)
EC50 [6]: 13.1 µM (active)
EC50 [7]: > 120 µM (not active)
EC50 [8]: 1.7 µM (active)
EC50 [9]: > 60 µM (not active)
IC50 [10]: 17.1 µM (active)
IC50 [11]: 15.5 µM (active)
IC50 [12]: > 25 µM (active)
IC50 [13]: 8.94 µM (active)

FC(F)(F)c1cccnc1Oc1ccc(C2=NCCS2)cc1
EC50 [14]: > 89.1 µM (inactive)

N=c1c(-c2nc3ccccc3[nH]2)cc(C(=O)c2ccco2)nn1-c1ccccc1
IC50 [15]: 16.8 µM (active)

Cc1cc(-c2ccccc2)cc(-c2ccccc2)[n+]1C
IC50 [15]: 5.02 µM (active)

Cc1cccc(N=C(S)Nc2ccc(Oc3ccccc3)cc2)n1
IC50 [10]: 22.5 µM (inactive)
IC50 [11]: 16.8 µM (active)

CCCCOCCOP(=O)(OCCOCCCC)OCCOCCCC
AC50 [16]: 25.1 µM (inconclusive)
AC50 [17]: 50.1 µM (inconclusive)

Cc1cccc2c1N(CCOc1ccc(C(C)(C)C)cc1)C(=O)C2=O
IC50 [10]: 5.76 µM (active)
IC50 [11]: 4.75 µM (active)

O=C(Nc1ccc(O)cc1)c1c(O)nc2c(c1O)CCCC2
AC50 [1]: 76 µM (active)

COC(=O)C1CCc2c(ccc3c2CCCC3)C1=O (configuration not stated)
AC50 [1]: > 350 µM (inactive)

COc1cc2c3c(c1OC)Oc1ccc(cc1)C[C@H]1c4c(cc(OC)c(OC)c4Oc4ccc(cc4)C[C@@H]3N(C)CC2)CCN1C
AC50 [3]: 25.2 µM (active)

O=C1NC(=S)S/C1=C\c1cc(Cl)cc(Cl)c1O
IC50 [10]: 3.47 µM (active)
IC50 [11]: 14.8 µM (active)
EC50 [18]: 7.19 µM (active)
CC50 [19]: 100 µM (active)
IC50 [20]: 65.4 µM (active)

CC(C)(C)c1ccc(OCC2CO2)cc1 (configuration not stated)
AC50 [17]: 12.6 µM (inconclusive)

Cc1ccc(C(=O)Nc2ccc(C(=O)N/N=C/c3cccnc3)cc2)cc1
IC50 [21]: 30.5 µM (active)
IC50 [22]: > 100 µM (inactive)
IC50 [23]: > 100 µM (inactive)

COc1ccc2[nH]c(C(=O)N/N=C/c3ccccc3OC)cc2c1
EC50 [24]: > 350 µM (not active)
EC50 [25]: > 350 µM (not active)
AC50 [26]: 2.17 µM (active)

COc1ccc(C#Cc2ccc3c(c2)O[C@@H](CN(C)C(=O)Nc2cccc(OC)c2)[C@H](C)CN([C@@H](C)CO)S3(=O)=O)cc1
IC50 [21]: 30.5 µM (active)
IC50 [22]: > 100 µM (inactive)
IC50 [23]: 42.8 µM (active)
AC50 [27]: 3.01 µM (active)

O=C(N[C@@H](Cc1ccccc1)C(=O)CCl)OCc1ccccc1
IC50 [28]: > 80 µM (inactive)
AC50 [29]: 39.8 µM (inconclusive)
AC50 [30]: 1.26 µM (inconclusive)
AC50 [31]: 12.6 µM (inconclusive)
AC50 [17]: 25.1 µM (inconclusive)

Oc1ccc(/C=N/n2c(S)nnc2COc2ccccc2)c(O)c1
AC50 [26]: 0.796 µM (active)

Cc1ccc(/N=c2\oc3cc(O)ccc3cc2C(N)=O)cc1
IC50 [32]: 33.8 µM (active)
EC50 [8]: 3.69 µM (active)
EC50 [9]: > 60 µM (not active)
AC50 [26]: 0.074 µM (active)

CCCN(CCC)[C@@H]1CCc2cccc(O)c2C1
AC50 [17]: 15.8 µM (inconclusive)

O=C(O)C1C2CCC(O2)C1C(=O)O (configuration not stated)
AC50 [17]: 1.26 µM (inconclusive)

ClC(Cl)(Cl)C(Cl)(Cl)Cl [HEXACHLOROETHANE]
AC50 [17]: 39.8 µM (inconclusive)
